US20080045499A1, “Preferential Inhibition of Presenilin-1” (Elan Pharmaceuticals, Inc., priority 2006, published 2008)
Where two headings read alike, the source gives them in different places.

How the values were obtained:
[1] = target: T1, Presenilin-2-comprised γ-secretase (Homo sapiens, UniProt P49810); experiment: Aβ1-x ELISA in Presenilin-2 transfected PS1/PS2 double knockout mouse fibroblasts; assay type: cell-based; conditions: Aβ1-x, Presenilin-2 transfected cells, overnight
T1 construct: expressed in transfected cells; host or cells: mouse fibroblasts derived from PS1/PS2 double knockout cells, pCF vector
Source text: (§1) A131-x represents any Aβ peptides longer than Aβ1-23, including Aβ38, Aβ40, and Aβ42, since Aβ1-x is defined operationally by an ELISA assay using proprietary antibody mAb 266 for capture and proprietary antibody mAb 3D6 for detection. The epitope for mAb266 is Aβ16-23, and the epitope for mAb 3D6 is Aβ1-5. […] Aβ40 ELISA employed antibodies mAb 266 as capture and 2G3 (specific for Ab40) as detection, respectively. Furthermore, Aβ42 ELISA employed antibodies mAb 266 as capture and 21F12 as detection, respectively. Hybridomas producing antibodies against Aβ16-23 were generated by standard murine fusion procedures as detailed in Kohler and Milstein (Nature 256:495 1975) and U.S. Pat. No. 4,666,829 which are hereby incorporated by reference in their entireties. See also “Detailed Description” herein. Briefly, two BALB/c mice immunized with Aβ13-28 conjugated to 2C-11 (a T-cell receptor monoclonal antibody) were sacrificed and the spleens removed. Mixed splenocytes were obtained by pressing the spleens through a 30 mesh stainless steel screen. These were fused with P3X63Ag8 murine myeloma cells (aminopterin sensitive) at a fusion ratio of 10:1 in 35% polyethylene-glycol. These cells were plated out in 96 well tissue culture plates in the presence of 2×10^6 thymocytes/ml. Hybridomas were selected for by growing the cells in the presence of aminopterin poisoned Dulbecco's modified Eagle's media augmented with hypoxanthine, thymine and 10% fetal bovine serum. Hybridomas were screened for reactivity against Aβ13-28 and AAP protein via ELISA. Positive clones were sub-cloned twice. Aliquots of the clones were frozen and stored in liquid nitrogen. Supernatants from positive clones were produced in large quantities for further purification of monoclonal antibodies.
(§2) For ELISA assays, each well of 96-well ELISA plates was coated with 100 μl of 10 μg/ml 266 in Well Coating Buffer (pH 8.5) at 4 degrees overnight, and blocked with 0.25% human BSA solution at 25 degrees for 120 minutes. The plate can be used directly without wash, after removing blocking solution.
(§3) ELISA assays were performed at room temperature. Fifty μl of conditioned medium from overnight culture of transfected cells, with or without gamma secretase inhibitors, were added to each well of ELISA plates, and incubated for 1 hour. After washing plates with Tris-buffered saline (TBS) plus 0.05% Tween-20, 50 μl biotinylated 3D6 antibody at 0.5 μg/ml was added to each well and incubate for 45 minutes. […] Next, plates were washed with Tris-buffered saline (TBS) plus 0.05% Tween-20, and 50 μl substrate (1-step slow TMB-Elisa, Pierce, Woburn, Mass., USA, catalogue number: 34024) was added to each well and incubated for 15 min. Finally, substrate reactions were terminate by adding to each well 15 ul 2 NH2SO4, and OD readings were obtained on SpectraMax Plus (Molecular Devices, Sunnyvale, Calif., USA). The Aβ concentration of samples was then obtained by comparing sample OD readings to those of standards.
(§4) EC50 values were derived by curve fitting of Aβ1-x levels, for samples treated with various concentrations of gamma secretase inhibitors, with XLfit software program (IDBS, Alameda, Calif., USA). Differences in EC50 values obtained for Presenilin-1 transfected cells and Presenilin-2 transfected cells exposed to a test compound served as an indicator of differential inhibition.
(§5) Transfected mouse fibroblasts derived from the PS1/PS2 double knockout cells are grown at 37 degree under 10% CO2 in Dulbecco's modified Eagle's medium (DMEM) containing 2-10% fetal bovine serum (FBS) and 100 μg/ml penicillin/streptomycin (Pen/Strp) (Invitrogen Corporation, Carlsbad, Calif., USA).
(§6) Cell culture medium is then removed from the transfected cell lines and analyzed for Aβ1-x levels by ELISA assay, as described in Example 1. ELISA assays are performed using ELISA plates coated with the mAb 266 to capture Aβ peptides and then by detecting Aβ peptides with biotinylated mAb 3D6.

[2] = target: T2, Presenilin-1-comprised γ-secretase (Homo sapiens, UniProt P49768); experiment: Aβ1-x ELISA in Presenilin-1 transfected PS1/PS2 double knockout mouse fibroblasts; assay type: cell-based; conditions: Aβ1-x, Presenilin-1 transfected cells, overnight
T2 construct: expressed in transfected cells; host or cells: mouse fibroblasts derived from PS1/PS2 double knockout cells, pCF vector
Source text: as §1, §2, §3, §4, §5, §6

[3] = test system: Presenilin-1-comprised γ-secretase relative to Presenilin-2-comprised γ-secretase; experiment: PS1/PS2 selectivity: ratio of EC50 in Presenilin-2 and Presenilin-1 transfected cells; assay type: cell-based, human; conditions: for PS2/PS1 EC50 ratio: EC50 of Presenilin-2 transfected cells over Presenilin-1 transfected cells
Source text: as §4
as §6, with “3D6. EC50 values are derived for all of the test compounds. Differences in EC50 values obtained for Presenilin-1 transfected cells and Presenilin-2 transfected cells exposed to a test compound serve as an indicator of differential inhibition.” for “3D6.”
For example, several tested compounds are sulfonamide compounds, while several are non-sulfonamide compounds. The ratio of the EC50 value obtained for Presenilin-2 transfected cells and Presenilin-1 transfected cells (indicated in the last column of Table I) indicates the degree to which the test compound is capable of preferentially inhibiting Presenilin-1. […] In Table 2, the values shown in columns A, B and C are EC50 values (nM). Where inhibition was very low, EC50 values were not generated by the program; thus EC50 values are not provided. Rather, percent of inhibition was estimated based on the inhibition curve generated by the program. Percentages indicate percentage inhibition at a compound concentration of 10 uM. […]

[4] = test system: 293sw; experiment: 293sw IC50 of gamma-secretase inhibitors; assay type: cell-based
[5] = test system: PS2/1C; experiment: Inhibition of chimeric presenilin PS2/1C; assay type: cell-based, human; conditions: chimeric PS1/PS2 molecule, FIG. 11
Source text: Human PS1, PS2, and APPsw cDNA inserts were subcloned into pCF vector, which was modified with pcDNA3 (Invitrogen, CA, USA) by inserting the adenoviral tripartite leader sequence (Berkner et al, (1987) J. Virol. April; 61(4): 1213-20. Abundant expression of polyomavirus middle T antigen and dihydrofolate reductase in an adenovirus recombinant) 38 bp upstream of the starting ATG codon, between the CMV promoter and the EcoR1 site. Construction of presenilin chimeras was PCR-based. For making chimeras that contain PS1backbone and a PS2 fragment, we first generated a large PCR fragment that contained the entire pCF vector plus all PS1 sequence to be retained, and a small PCR fragment that only contained the PS2 fragment to be used in the final chimera. The two PCR fragments were then ligated in a blunt-end fashion by Rapid DNA ligation kit (Roche, Ind., USA). We used pfu Turbo DNA polymerase kit (Strategene, Calif., USA) for all PCR reactions. To avoid potential mutations introduced by PCR, we first sequenced the entire insert in both strands. […] For making chimeras that contained PS2 backbone and a PS1 fragment, we first generated a large PCR fragment that contained the entire pCF vector plus all PS2 sequence to be retained, and a small PCR fragment that only contained the PS1 fragment to be used in the final chimera. All other cloning procedures were the same as described above. […]

[6] = column A, read-out: PS2 EC50* (nM) A
[7] = column B, read-out: PS2 EC50* (nM) B
[8] = column A, read-out: PS1 EC50 (nM) A
[9] = column B, read-out: PS1 EC50 (nM) B
[10] = column C, read-out: PS1 EC50 (nM) C
[11] = column C, read-out: PS2 EC50* (nM) C

Compound | EC50 [1, 6] [nM] | EC50 [1, 7] [nM] | EC50 [2, 8] [nM] | EC50 [2, 9] [nM] | EC50 [2, 10] [nM] | PS2/PS1 EC50 ratio [3] | IC50 [4] [nM] | EC50 [1, 11] [nM] | fold more selective for PS1 ([3]; mean values from 2 independent experiments (FIG. 11)) [fold] | inhibitor potencies against PS2/1C compared with PS1 [5]
O=C1NCCCC[C@H]1N(Cc1ccc(Br)cc1)S(=O)(=O)c1ccc(Cl)cc1 | 1920 | 3410 | 106 | 259 | 159 | 15 | 243 |  |  | 
O=C1NCCCC[C@H]1N(Cc1ccc(Br)cc1)S(=O)(=O)c1ccc(Cl)nc1 | 1570 | 2290 | 92 | 189 | 87 | 31 | 118 |  |  | 
Cn1nnc2cc(CN([C@@H]3CCCCNC3=O)S(=O)(=O)c3ccc(Cl)cc3)ccc21 | 589 | 924 | 40 | 75 | 42 | 15 | 51 |  |  | 
Cn1nnc2cc(CN([C@@H]3CCCCNC3=O)S(=O)(=O)c3ccc(Cl)nc3)ccc21 | 1980 | 1840 | 84 | 53 | 114 | 23 | 238 |  |  | 
CCS(=O)(=O)CC[C@@H](C)N(c1cc(Cl)ccc1Cl)S(=O)(=O)c1ccc(Cl)cc1 | 5000 | 5700 | 153 | 868 | 598 | 10 | 182 |  |  | 
C[C@H](NC(=O)[C@@H](O)c1cc(F)cc(F)c1)C(=O)Nc1cc(C(C)(C)c2ccccc2)n[nH]1 | 26 | 23 | 8.2 | 8.3 | 19 | 2 | 1 |  |  | 
C[C@H](NC(=O)[C@@H](O)c1cc(F)cc(F)c1)C(=O)N[C@H](C(=O)NCC1CN(c2ccccc2)CCO1)c1ccccc1 (some centres unmarked) | 45 | 44 | 10 | 37 | 17.5 | 2 | 41 |  |  | 
COc1ccc(CN([C@@H]2CCCCNC2=O)S(=O)(=O)c2ccc(Cl)cc2)cc1OC | 1290 | 1980 | 91 | 89 | 109 | 27 | 126 | 4540 |  | 
Cn1nnc2cc(CN([C@@H]3CCCCNC3=O)S(=O)(=O)c3ccc(Cl)s3)ccc21 | 6410 | 5310 | 122 | 87 | 102 | 47 | 775 | 3000 |  | 
O=C1NCCCC[C@H]1N(Cc1ccc(-c2ncon2)cc1)S(=O)(=O)c1ccc(Cl)cc1 | 175 | 156 | 20 | 5.9 | 26 | 12 | 16 | 263 |  | 
O=C1NCCCC[C@H]1N(Cc1ccc(-c2nccs2)cc1)S(=O)(=O)c1ccc(Cl)cc1 | 585 | 412 | 30 | 50 | 74 | 10 | 77 | 553 |  | 
BMS299897 [reference compound] |  |  |  |  |  |  |  |  | ~35 | behaved just like PS1
